{
  "source": "patent US8367051B2",
  "about": "“Preparation of functional gel particles with a dual crosslink network” (Carnegie Mellon University, priority 2006, dated 2013)",
  "tested_on": "HeLa cells",
  "test": "Doxorubicin release from nanogels in cell media, live/dead cell assay",
  "format": "cell-based",
  "details": "after addition of glutathione (nanogels) or free Dox (control wells); control 93%; free Dox amount 6-7 times larger",
  "description": "Doxorubicin release from nanogels in cell media. Using standard cell culture techniques, 5×10^4 HeLa cells were added to each well of a 24-well plate and cultured in complete DMEM for 24 h to permit cell attachment to the surface. After this time period, Dox-loaded nanogel (16%, 1.5 mg) was added to four wells (for each nanogel sample), leaving 12 wells with no gel to serve at control. After another 24 hours (48 hours total), the media was removed from 10 of the wells (6 samples, 4 controls) and a live/dead cell assay was performed to measure the toxicity of the gel before addition of the reducing agent. After performing this analysis, glutathione (0.2 mg) dissolved in sterile PBS, was added to each well containing the nanogels and 6 of the control wells. Additionally, free Dox (1 mg) was added to 3 of the control wells. […]\nTo confirm the non-limiting exemplary concept that Dox-loaded nanogels will be degraded upon the addition of glutathione in cellular media and in turn, the released Dox molecules will kill cancer cells, HeLa cancer cells were incubated with and without 16.4% Dox-loaded nanogels. The cell viability was measured at the 48-hour time point using live/dead staining to estimate the cytotoxicity of the Dox-loaded nanogel before addition of the reducing agent. […]",
  "data": [
    {"smiles": "COc1cccc2c1C(=O)c1c(O)c3c(c(O)c1C2=O)C[C@@](O)(C(=O)CO)C[C@@H]3O[C@H]1C[C@H](N)[C@H](O)[C@H](C)O1.Cl", "note": "[free Dox, doxorubicin hydrochloride]", "values": [
      {"measurement": "cell viability of HeLa cells after Dox release", "value": 7, "unit": "%"}
    ]}
  ]
}
